# Source: patent US20230310636A1, “COMBINATION THERAPIES FOR TREATMENT OF CANCER WITH THERAPEUTIC BINDING MOLECULES” (MedImmune Limited, priority 2022, published 2023)
# Experiments:
# [1] = system: MDA-MB-468 breast cancer xenografts; experiment: MDA-MB-468 breast cancer xenograft, ADC with AZD5305; assay type: in vivo, mice; conditions: AZD5305 individually, 0.1 mg/kg and 1 mg/kg, once daily oral, 28 days; FIG. 7
# Description: MDA-MB-468 cells were injected 5×10^6 per mouse into the mammary fat pad of female CB-17 SCID mice. […] Tumor and body weight measurements were recorded twice weekly for the duration of the study.
# All animal experiments were conducted in a facility accredited by the Association for Assessment and Accreditation of Laboratory Animal Care under the guidelines of AstraZeneca's Institutional Animal Care and Use Committee and appropriate animal research approvals. Cell line xenograft models were established through subcutaneous implantation of cells in 50% Matrigel (Corning, Corning, NY, USA) in either the right mammary fat pad (MX-1, MDA-MB-468) or left flank (HT29, HT29-huB7-H4) of female CB-17 mice (Envigo, Frederick, MD, USA). When tumor volume reached 150-200 mm^3, mice were randomized and given a single intravenous (IV) injection of vehicle control (20 mM histidine, pH 6; 240 mM sucrose; 0.02% PS-80) or ADCs. Body weight and tumor measurements were determined once or twice weekly, and tumor volume was calculated with the formula
# [2] = preclinical models; cited from earlier work
compound,measurement,setting,value
"CCc1cc2ncc(CN3CCN(c4ccc(C(=O)NC)nc4)CC3)cc2[nH]c1=O [AZD5305, 5-[4-[(7-ethyl-6-oxo-5H-1,5-naphthyridin-3-yl)methyl]piperazin-1-yl]-N-methyl-pyridine-2-carboxamide]",anti-tumor activity in vivo (tumor size over time),[1],little to no anti-tumor activity
same,hematological toxicity in comparison with non-selective PARPi,[2],reduced hematological toxicity
